# From patent publication US20220023315A1, “METHODS OF ACTIVATING MICROGLIAL CELLS” (THE RESEARCH FOUNDATION FOR THE STATE UNIVERSITY OF NEW YORK, priority 2018, published 2022)
# “Also recorded” adds a separate entry of the source.
# What was measured:
# SIM-A9 cells [1] = assay: Phagocytosis of PI-stained dead neurons, SIM-A9 cells (flow cytometry); assay type: cell-based; settings: Torin with K161
# Source text: (§1) Next it was investigated if microglial can phagocytose dead neurons, and to what extent the phagocytosis of dead neurons is enhanced by SHIP inhibitors. Dead neurons were stained with propidium iodide. Propidium iodide is a fluorescent compound that binds to a cell's DNA and can be used to stain dead cells. The phagocytosis of propidium iodide (PI)-stained dead neurons by microglia was investigated by flow cytometry (FIG. 6). […] (FIG. 6C). […] Pan-SHIP inhibition increased phagocytic activity of microglial cells towards dead neurons.
# BV2 cells [2] = assay: Phagocytosis of PI-stained dead neurons, BV2 cells (flow cytometry); assay type: cell-based; settings: for phagocytosis of dead neurons, selective inhibitors alone or combined: BV2 cells (FIG. 6C)
# Source text: as §1
# primary microglia [3] = assay: Phagocytosis of PI-stained dead neurons, primary microglia (flow cytometry); assay type: cell-based, mouse
# Source text: as §1
# BV2 cells [4] = assay: LysoTracker Red staining of lysosomal/phagosomal compartment, BV2 cells (flow cytometry, confocal); assay type: cell-based; settings: for LysoTrackerRed MFI (phagosomal compartment size): BV2 cells treated 16 hr, 3.75 μM and 5 μM, vs diluent control; for phagosomal compartment size (LysoTrackerRed staining): BV2 cells treated 20 hr, 50 nM LysoTrackerRed
# Experimental: Flow cytometric assays were conducted to detect and compare the ability of SHIP inhibitor compounds to increase the phagocytic capacity of microglia as determined by LysoTracker Red staining which is preferentially retained and fluoresces in the acidic environment of the lysosomal/phagosomal subcellular compartment. BV2 cells were treated for 20 hr with 3AC, K118 or K149 at the indicated doses vs. their respective diluent controls, washed twice and incubated with 50 nM LysoTrackerRed and then analyzed by flow cytometry (FIG. 5). Histograms of the LysoTrackerRed staining for each compound at the indicated dose or their diluent control (0 μM) are shown. […] K118 repeated towards BV2 cells (FIG. 5D, 5E) and primary microglial cells (FIG. 5F, 5G). BV2 cells were treated for 16 hr with the indicated K118 concentration and incubated with LysoTrackerRed (50 nM), washed twice and then analyzed by flow cytometry and compared to similarly treated vs. their diluent control primary microglia (0.5% DMSO). Histograms of LysoTrackerRed staining for K118 (Red-3.75 μM, Green-5 μM) or diluent control (Blue, shaded) are shown. In FIG. 5E, line and whisker plots are shown for the mean fluorescence intensity (MFI) of LysoTrackerRed staining at the indicated concentrations of K118.
# Pan-SHIP1/2 inhibition increased microglial lysosomal/phagosomal compartment.
# [5] = system: p-mTOR (Ser2448) and p-S6 in BV2 cells; assay: Western blotting and intracellular flow of signaling kinases, BV2 cells; assay type: cell-based; settings: for mTOR phosphorylation at Ser2448: microglia (BV2), Western blotting / icFlow
# Experimental: (§2) Using both Western blotting and intracellular flow (icFlow) assays activation of key signaling kinases that are known to control proliferation, survival and effector functions in immune cells were examined. This included probing for phosphorylated forms of Akt, ERK, mTOR (p-mTOR) and S6 (p-S6). BV2 cells were incubated with a series of pan-SHIP inhibitors. […] In FIG. 8E, the effect of 3AC on BV2 cells is depicted, as assessed by Western Blotting, with actin and HSP90 as loading controls.
# SIM-A9 cells [6] = assay: CCK-8 assay of cell growth, SIM-A9 cells; assay type: cell-based; settings: 48 hr
# Experimental: (§3) The ability of 3AC, K118 and K149 to promote the proliferation of BV2 and SIM-A9 microglial cells was tested in vitro. Cells were counted with a cell counting kit-8 (e.g. CCK-8) which is a sensitive colorimetric assays for the determination of cell viability in cell proliferation and cytotoxicity assays. It uses the highly water-soluble tetrazolium salt, WST-8, which is reduced by dehydrogenase activities in cells to give a yellow-color formazan dye, which is soluble in the tissue culture media. The amount of the formazan dye, generated by the activities of dehydrogenases in cells, is directly proportional to the number of living cells.
# (§4) A CCK-8 assay was performed for analysis of cell growth of BV2 cells (FIG. 4A), and SIM-A9 cells (FIG. 4B) vs. their respective vehicle controls (100%) at 48 hr. Each point represents the mean of the 6 replicates for each dose.
# BV2 cells [7] = assay: Phagocytosis of FITC-labeled amyloid beta (1-42), BV2 cells (flow cytometry, confocal); assay type: cell-based; settings: for beta amyloid phagocytosis: BV2 cells, 16 hours, 3.75 μM, then 1 hour beta amyloid-FITC
# Experimental: It was investigated if the enhanced phagocytic activity of microglia towards lysotracker and dead neurons extended to the enhanced phagocytosis of amyloid proteins. Flow cytometric assays were conducted to detect and compare the ability of SHIP inhibitor compounds to enhance the phagocytosis of amyloid beta 1-42 coupled to FITC. These assays provided a means to compare the ability of SHIP inhibitor compounds to promote a crucial effector function of microglia in the brain that is highly relevant for the pathology of Alzheimer's disease.
# Cells were then washed twice and analyzed by flow cytometry for the presence of FITC-labeled amyloid beta (1-42). […] FIG. 7F-H show the confocal images of fixed BV2 cells incubated with beta amyloid with and without K161.
# BV2 cells [8] = assay: CCK-8 assay of cell growth, BV2 cells; assay type: cell-based; settings: 48 hr
# Experimental: as §3, §4
# [9] = system: CD11b+CD45low cell population (microglial cells) of the cerebral hemispheres; assay: K161-treated mice: phagocytic activity of brain cell populations; assay type: in vivo
# Experimental: In a subsequent experiment, mice were treated twice a week for two weeks with K161. A single cell suspension of the cerebral hemispheres was prepared from K161 (10 mg/kg) and vehicle (H20)-treated mice (n=10/group). Mice were treated twice a week for two weeks, the brains harvested by flow cytometry (FIG. 12A). Box & whisker plots of frequency of single population gated on live cells singlets for markers CD11b, CD45 and ACSA2 (FIG. 12B). The ability of the various cell types to phagocytose dead neurons, beta amyloid and LysoTracker in the absence or presence of K61 are shown in FIG. 12I to 12K. A single cell suspension of the cerebral hemispheres was prepared from K161 (10 mg/kg) and vehicle (H2O)-treated mice (n=10/group). Mice were treated twice a week for two weeks, the brains harvested by flow cytometry. Box & whisker plots of dead neuron (FIG. 12I), beta amyloid (FIG. 12J) and lysotracker assay (FIG. 12K) are shown on a single brain population gated on live cells, singlets and surface markers CD11b, CD45 and ACSA2.
# Therefore, SHIP inhibitors, and particularly those that inhibit both SHIP1 and SHIP2, or selectively SHIP2 (e.g., AS1949490—available from commercial suppliers such as Sigma Aldrich and Tocris), can increase microglial phagocytic capacity to remove dead neurons from the CNS.
# [10] = Serum levels after single dose IP or oral gavage; assay type: in vivo, mice
# Experimental: To assess oral bioavailability, K118 and K161 were administered in a single dose of 10 mg/kg either by IP or by oral gavage, and levels of each were measured in serum (FIG. 14).
# primary microglia [11] = assay: Phagocytosis of FITC-labeled amyloid beta, primary microglia (flow cytometry); assay type: cell-based, mouse; settings: 16 hours, 1.25 μM, then 1 hour beta amyloid-FITC
# [12] = Detection of K161 in brain tissue by mass spectrometry after single dosing; assay type: in vivo; settings: mice; for detection in brain tissue: 48 hr or 96 hr after administration, mass spectrometry
# Experimental: Tissues were harvested 48 hr or 96 hr after administration, and K161 was detected by mass spectrometry and quantitated against a known concentration of K161 spiked into either serum or brain tissue homogenate (FIG. 13A). The calibration curves for K161 are shown in FIGS. 13B and 13C, with the added experimental data points in FIG. 13D. The concentrations of K161 in the brain tissue samples were calculated from the linear characteristics of the standard curve FIG. 13E.
# [13] = system: AKT, p-mTOR, p-S6 in primary microglia cells; assay: Expression of signaling kinases, primary microglia; assay type: cell-based, mouse
# Experimental: as §2
# [14] = 10 mg/kg twice a week for two weeks, vs vehicle
compound,measurement,setting,value
Torin,effect on K161-enhanced phagocytosis of dead neurons,SIM-A9 cells [1],did not abolish the increase in phagocytosis of dead neurons by K161
same,effect on K161-enhanced phagocytosis of dead neurons,"BV2 cells [2]; BV2 cells, Torin with K161",did not abolish the increase in phagocytosis of dead neurons by K161
same,effect on K161-enhanced phagocytosis of dead neurons,"primary microglia [3]; primary microglial cells, Torin with K161",did not abolish the increase in phagocytosis of dead neurons by K161
CC[C@H]1CC[C@H]2[C@@H]3C[C@@H](O)C4C[C@H](N)CC[C@]4(C)[C@H]3CC[C@]12C (stereo partly shown),melting point,,193 to 195 °C
C[C@H](NC(=O)c1sccc1OCc1ccc(Cl)cc1)c1ccccc1 [AS1949490],"phagocytosis of dead neurons, selective inhibitors alone or combined",BV2 cells [2],"not either of those inhibitors alone, increased phagocytosis"
CC(C)CCC[C@@H](C)[C@H]1CC[C@H]2[C@@H]3CCC4C[C@H](N)CC[C@]4(C)[C@H]3CC[C@]12C (stereo partly shown) [3AC],LysoTrackerRed MFI (phagosomal compartment size),BV2 cells [4],statistically significant increase in the phagosomal compartment size
same,phagosomal compartment size (LysoTrackerRed staining),BV2 cells [4],only a modest increase
same,mTOR phosphorylation at Ser2448,[5],increase mTOR phosphorylation at Ser2448
same,"phagocytosis of dead neurons, selective inhibitors alone or combined",BV2 cells [2],"not either of those inhibitors alone, increased phagocytosis"
CSc1ccc2c(c1)c(CCN)c(C)n2Cc1ccc(Cl)cc1Cl [K149],LysoTrackerRed MFI (phagosomal compartment size),BV2 cells [4],statistically significant increase in the phagosomal compartment size
same,phagosomal compartment size (LysoTrackerRed staining),BV2 cells [4],robust increases
same,mTOR phosphorylation at Ser2448,[5],increase mTOR phosphorylation at Ser2448
same,cell growth (proliferation) vs. vehicle control (100%),SIM-A9 cells [6],an effect on proliferation was observed
same,beta amyloid phagocytosis,BV2 cells [7],Significant increases in beta amyloid phagocytosis; also recorded: significantly increased
same,cell growth vs. vehicle control (100%),BV2 cells [8],"showed effects at 2.5, 3.75 and 5 μM concentrations"
"C[C@@]12CCC[C@H]1C1CC[C@H]3C[C@H](N)[C@H](N)C[C@]3(C)[C@H]1CC2.Cl.Cl (stereo in doubt) [K161, (2R,3S,5S,8R,9S,10S,13S,14S)-10,13-dimethylhexadecahydro-1H-cyclopenta[a]phenanthrene-2,3-diaminium Chloride]","ability to phagocytose beta amyloid, CD11b+CD45low cells",[9]; [14],increased ability to phagocytose dead neurons and beta amyloid
same,"ability to phagocytose dead neurons, CD11b+CD45low cells",[9]; [14],increased ability to phagocytose dead neurons and beta amyloid
same,size of the phagosomal compartment in subsets of microglial cells in the brain,[9]; intraperitoneal injection twice a week for two weeks,increased the size of the phagosomal compartment
same,"decay in vivo, compared","[10]; mouse, in vivo, 10 mg/kg",decay more rapidly in vivo than K118
same,oral bioavailability,"[10]; single dose 10 mg/kg IP or oral gavage, levels in serum",have oral bioavailability
same,p-S6 expression,[5]; BV2 cells,increase in p-S6 expression
same,"p-mTOR (Ser2448) expression, mean fluorescence intensity","[5]; BV2 cells, 16 hr, intracellular flow",significantly increased p-MTOR expression
same,mTOR phosphorylation at Ser2448,[5],increase mTOR phosphorylation at Ser2448
same,beta amyloid phagocytosis,primary microglia [11],Significant increases in beta amyloid phagocytosis
same,blood brain barrier penetration,[12]; 10 mg/kg IP or oral gavage,can penetrate the blood brain barrier
same,detection in brain tissue,[12]; 10 mg/kg IP,detectable in the brain tissue
same,detection in brain tissue,[12]; 10 mg/kg oral gavage,detectable in the brain tissue
same,activation of AKT,[13],activated AKT
same,activation of p-S6,[13],not p-mTOR or p-S6
same,activation of p-mTOR,[13],not p-mTOR or p-S6
same,beta amyloid phagocytosis,BV2 cells [7],Significant increases in beta amyloid phagocytosis; also recorded: significantly increased
same,"phagosomal component, confocal images",BV2 cells [7]; fixed BV2 cells incubated with beta amyloid,the phagosomal component is increased
same,phagocytic activity towards dead neurons,"primary microglia [3]; primary microglia, 16 hr, 1.25 μM",enhanced the phagocytic activity
Cc1c(CCN)c2ccccc2n1Cc1ccccc1Cl.Cl,melting point,,161 to 169 °C
